Consider two compounds from patent publication US5128448A, “CCK analogs with appetite regulating activity” (Hoffman-La Roche Inc., priority 1990, dated 1992).

Each structure is given as a SMILES string. Non-standard residues stand in square brackets, D forms with d. Residues, ends and D or L forms follow the SMILES beside them. sY = N[C@@H](Cc1ccc(OS(=O)(=O)O)cc1)C(=O)O; 2Nal = N[C@@H](Cc1ccc2ccccc2c1)C(=O)O; Cha = N[C@@H](CC1CCCCC1)C(=O)O

The target in this data set is Human neutral metalloendopeptidase (Homo sapiens, UniProt P08473). The data set is described as follows: Degradation by human neutral metalloendopeptidase (HPLC). It counts as in vitro ADME. To be noted: for % Degradation by Heights: 37° C., tris-HCl pH 7.6; for No. of Peaks: HPLC. The procedure: Human neutral metalloendopeptidase (0.01 mg) and 5 nmol of peptide were incubated in […] tris-HCl buffer (pH 7.6) and at 37° C. for varying periods of time. The degradation of the peptide was monitored by analytical HPLC on a 5 micron Adsorbosphere-ODS column with 0-50% CH3 CN gradient in 0.1N potassium phosphate buffer, pH 3.0, with UV detection at 210 nm. Rates are based on presumed production of Asp-Tyr(SO3 H)-Met-Gly for CCK-8 and Ac-Tyr(SO3 H)-Met-Gly for the compound of example 73.
Human neutral metalloendopeptidase, sequence (P08473 whole entry): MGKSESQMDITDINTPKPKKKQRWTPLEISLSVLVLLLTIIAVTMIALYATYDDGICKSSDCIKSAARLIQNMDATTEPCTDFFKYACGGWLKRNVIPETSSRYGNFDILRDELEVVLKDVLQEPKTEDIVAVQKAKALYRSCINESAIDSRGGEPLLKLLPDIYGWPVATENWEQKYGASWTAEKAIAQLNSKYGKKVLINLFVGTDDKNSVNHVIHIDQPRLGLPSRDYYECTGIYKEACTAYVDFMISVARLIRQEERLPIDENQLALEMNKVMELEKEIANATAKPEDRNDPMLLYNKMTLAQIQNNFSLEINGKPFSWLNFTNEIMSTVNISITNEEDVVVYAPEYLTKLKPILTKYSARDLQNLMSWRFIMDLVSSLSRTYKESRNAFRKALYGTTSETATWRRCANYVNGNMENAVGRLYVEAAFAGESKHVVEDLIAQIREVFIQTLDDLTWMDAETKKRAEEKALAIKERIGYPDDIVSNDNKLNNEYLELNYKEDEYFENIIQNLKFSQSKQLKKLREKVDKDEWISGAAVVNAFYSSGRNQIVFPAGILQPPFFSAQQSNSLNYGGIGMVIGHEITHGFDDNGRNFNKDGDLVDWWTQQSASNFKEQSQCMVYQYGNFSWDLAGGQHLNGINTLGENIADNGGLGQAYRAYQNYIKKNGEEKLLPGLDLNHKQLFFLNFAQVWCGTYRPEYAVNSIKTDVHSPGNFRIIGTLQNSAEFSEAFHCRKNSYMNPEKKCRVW

For `CSCC[C@H](NC(=O)[C@H](Cc1ccc(OS(=O)(=O)O)cc1)NC(=O)[C@@H](N)CC(=O)O)C(=O)NCC(=O)N[C@@H](Cc1c[nH]c2ccccc12)C(=O)N[C@@H](CCSC)C(=O)N[C@@H](CC(=O)O)C(=O)N[C@@H](Cc1ccccc1)C(N)=O` [CCK-8, Asp^26 -Tyr-(SO3 H)^27 -Met^28 -Gly^29 -Trp^30 -Met^31 -Asp^32 -Phe^33 -NH2], the “% Degradation by Heights” value by setting is: (time of incubation 0 min) 0%; (time of incubation 15 min) 6.2%; (time of incubation 30 min) 33.2%; (time of incubation 60 min) 69.7%. Further, the “No. of Peaks” value (time of incubation 60 min) was determined as 4.
Turning to `CSCC[C@H](NC(=O)[C@H](Cc1ccc(OS(=O)(=O)O)cc1)NC(C)=O)C(=O)NCC(=O)N[C@@H](Cc1ccc2ccccc2c1)C(=O)N[C@@H](CCSC)C(=O)N[C@@H](CC(=O)O)C(=O)N[C@@H](CC1CCCCC1)C(N)=O` [Example 73, Ac-Tyr(SO3 H)-Met-Gly-(2)Nal-Met-Asp-Cyclohexylalanine-NH2] (Ac-[sY]MG[2Nal]MD[Cha]-NH2), the “% Degradation by Heights” value by setting is: (time of incubation 0 min) 0%; (time of incubation 60 min) 10.0%; (time of incubation 120 min) 27.0%; (time of incubation 240 min) 56.4%. For the same compound, the “No. of Peaks” value (time of incubation 240 min, one peak detected and one peak that coeluted with substrate) is 2.
